Reference: patent US7326722B2, “N-[Phenyl(piperidin-2-yl)methyl]benzamide derivatives, their preparation and their application in therapy” (Sanofi-Aventis, priority 2002, dated 2008)
Structures can show the parent of a compound that is named as a salt.

C[N+]1([O-])CCCCC1C(NC(=O)c1cccc(C(F)(F)F)c1Cl)c1ccccc1 (centres unmarked) (as salt: HCl) [Compound No. 69]
melting point: 126 to 128 °C

C[N+]1([O-])CCCCC1C(NC(=O)c1cccc(C(F)(F)F)c1Cl)c1ccccc1 (centres unmarked) (as salt: HCl) [Compound No. 70]
melting point: 100 to 102 °C
